This note sets out measurements from patent US9296687B2, “Modulators of HSP70/DnaK function and methods of use thereof” (The Trustees of the University of Pennsylvania, priority 2008, dated 2016).

One assay relates to p62/SQSTM1, LC3. Nature of the assay: Autophagy markers in cultured cells (vacuoles, LC3-II, p62/SQSTM1, electron microscopy). In kind it is cell-based, human. The following applies: for p62/SQSTM1 oligomers in soluble and detergent-insoluble fractions: 24 h, PES 20 μM, Velcade 100 nM, CQ 50 μM, 17-AAG 15 nM.
Another assay concerns HSP90. Nature of the assay: Biotin-PES complexes captured with NeutrAvidin resins from treated cells, IP-WB. As to conditions: 20 μM, 24 h.
For assay [1], the target named is T1, HSP70 (Homo sapiens, UniProt P0DMV8). The assay can be described thus: Capture of HA-tagged HSP70 constructs from transfected H1299 cells with biotinylated compound. Format: binding. Further details: expressed in transfected cells; host or cells: H1299. The protocol:
FIG. 1. PES Binds to HSP70. (A) Whole cell extracts (WCE) prepared from A875 and BCL-xL over-expressing U2OS human osteosarcoma cells (BX-U2OS) cells, treated with Biotin or Biotin-PES (B-PES), were captured using NeutrAvidin agarose resins. HSP70-family proteins were identified as the major product in the excised band of ˜70 kDa shown in both Coomassie gels. (B and C) WCE were prepared from the cell lines indicated following 24 h treatment with 20 μM Biotin or B-PES and examined for the expression of proteins indicated (left panel of B and C) by western blot analysis; note that different exposure times were used to visualize these proteins. […] (D) In vitro evidence for an interaction between B-PES and HSP70. Full-length human HSP70 and human HSP90 proteins were in vitro translated in the presence of ^35S-methionine, mixed with B-PES coupled to NeutrAvidin resins, and eluted using 100 mM DTT. The resulting DTT eluates were separated by polyacrylamide gel electrophoresis (SDS-PAGE) and visualized by autoradiography. (E) B-PES interacts with the C-terminal region of HSP70. H1299 cells were transfected with the indicated hemagglutinin (HA)-tagged constructs and exposed to B-PES. B-PES containing complexes were captured by NeutrAvidin Resins, eluted following 100 mM DTT treatment, and immunoblotted with anti-HA antibody following SDS-PAGE. (F) Non-transformed human IMR90 fibroblasts or H1299 lung carcinoma cells were treated with the indicated concentrations of PES for 24 h and cell viability was determined by MTT assays. (G) WCE were prepared from the cell lines indicated following 5 hr treatment with 20 μM PES or B-PES and examined for the expression of proteins indicated (left panel) by western blot analysis; note that different exposure times were used to visualize these proteins. B-PES-containing complexes were captured by NeutrAvidin resins, eluted following 50 mM DTT treatment, and immunoblotted using the indicated antibodies.
The free amide group of PES-Cl was biotinylated and added to HA-tagged HSP70-transfected H1299 cells. The treatment of the cells occurred for 6 hours. The complexes were pulled down with NeutrAvidin beads, eluted with 100 mM DTT treatments, separated with SDS-PAGE and detected with anti-HA antibody (Millipore) by Western blot.
Docking studies were performed using the C-terminal HSP70 crystal structure (FIG. 32) to elucidate the PES binding site in silico (FIG. 33). Blind docking methods were used in the program AutoDock to locate potential PES binding sites. These methods use a course grid docking approach, encompassing the entire protein, to identify favorable binding sites using a known binding ligand, and are examined by hand to support the AutoDock data. […]

Assay [2] addresses T1, HSP70. The assay can be described thus: In vitro binding of B-PES on NeutrAvidin resins to 35S-labelled in vitro translated protein.
Target sequence in this assay (P0DMV8 whole entry): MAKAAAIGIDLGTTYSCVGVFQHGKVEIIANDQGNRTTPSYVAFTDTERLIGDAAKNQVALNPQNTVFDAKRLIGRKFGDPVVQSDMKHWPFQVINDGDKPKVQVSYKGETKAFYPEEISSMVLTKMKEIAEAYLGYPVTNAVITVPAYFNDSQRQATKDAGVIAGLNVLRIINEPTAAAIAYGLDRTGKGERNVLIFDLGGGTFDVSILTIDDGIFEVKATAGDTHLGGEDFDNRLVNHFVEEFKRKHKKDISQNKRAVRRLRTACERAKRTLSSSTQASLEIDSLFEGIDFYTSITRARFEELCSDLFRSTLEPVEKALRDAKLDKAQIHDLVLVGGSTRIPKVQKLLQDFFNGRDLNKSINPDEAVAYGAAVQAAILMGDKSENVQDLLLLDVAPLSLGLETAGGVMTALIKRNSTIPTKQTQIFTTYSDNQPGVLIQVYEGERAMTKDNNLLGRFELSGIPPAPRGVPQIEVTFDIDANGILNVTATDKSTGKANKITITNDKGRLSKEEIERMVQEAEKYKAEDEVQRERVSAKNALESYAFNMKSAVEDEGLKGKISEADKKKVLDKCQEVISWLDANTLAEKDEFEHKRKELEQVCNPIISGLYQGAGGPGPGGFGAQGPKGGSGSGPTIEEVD
Assay [3] has as its target T1, HSP70. The assay can be described thus: Competition of untagged PES with B-PES for HSP70. As to conditions: purified HSP70, 0.25 mM B-PES, 0.125 mM untagged PES. Format: binding. The arrangement: endogenous in cells; host or cells: human tumor cell lines (A875, BX-U2OS, U2OS, H1299, MiaPaCa2, HepG2, SKBR3, 293T). On the procedure: FIG. 15. Evidence supporting HSP70 as the cellular target of PES. (A) Competition studies in vivo support HSP70 as a PES target. H1299 cells were either pre-treated with DMSO or excess (25×) untagged PES for 1 h prior to the addition of 20 μM Biotin-PES (B-PES) for 5 h, and examined for the expression of proteins indicated (left). B-PES-containing complexes were captured by NeutrAvidin Resins, and immunoblotted using the indicated antibodies. […] (B) Competition studies in vitro support HSP70 as a PES target. Purified HSP70 protein was incubated with 0.25 mM B-PES in the absence and in the presence of 0.125 mM untagged PES.
Target sequence in this assay (P0DMV8 whole entry): as above

The target in the next assay is GRP78 (Homo sapiens, UniProt P11021). Nature of the assay: Biotin-PES complexes captured with NeutrAvidin resins from treated cells, IP-WB. As to conditions: 20 μM, 24 h.
In the next assay the target is HSC70 (Homo sapiens, UniProt P11142). The assay is described as above. The following applies: 20 μM.
For assay [4], the target named is T1, HSP70. The assay is described as above. As to conditions: 20 μM.
Target sequence in this assay (P0DMV8 whole entry): as above
A further assay deals with tumor cell lines. The assay can be described thus: MTT cell viability assay. In kind it is cell-based, human. The following applies: 20 μM pretreatment 1 h, then 20 μM PES 24 h. On the procedure:
Cell viability assays were performed using an MTT (methyl thiazolyl tetrazolium) colorimetric assay (Roche Applied Science, Cat. No. 11 465 007 001), with the following modifications. Briefly, cells (1×10^4) were plated into 24 well-assay plates in 0.5 ml media and allowed to attach overnight. […] After the incubation period, 50 μl of the water-soluble MTT labeling reagent [3-[4,5-dimethylthiazol-2-yl]-2,5-diphenyl tetrazolium bromid] were added to the cells, and the cells were incubated for 4 h in a humidified chamber at 37° C. with 5% CO2. The metabolized insoluble formazan crystals were then solubilized using 0.5 ml of the Solubilization solution (10% SDS in 0.01M HCl) per well, and the resulting colored solutions were spectrophotometrically quantified at an absorbance of 570 nm.
(In general: Tetrazolium dyes change colour on reduction, which living cells bring about.)

Another assay has as its system caspase-3, caspase-8. The assay can be described thus: Western blot for caspase cleavage. The following applies: U2OS, 20 μM pretreatment 1 h. In kind it is cell-based, human.
Another assay relates to 20S proteasome. The assay can be described thus: Cell-based 20S proteasome activity assay. The arrangement: species or system human. The following applies: H1299 or A875 cells; PES 20 μM, 17-AAG 1 μM, CQ 5 μM.
The test system of a further assay is EGFR, HER2/ErbB2, AKT. Nature of the assay: Western blot of HSP70/HSP90 client proteins in detergent-soluble and detergent-insoluble fractions. In kind it is cell-based, human. On the procedure:
FIG. 17. PES impairs the proteasome system. (A) Cell-based 20S proteasome activity assay of H1299 or A875 human tumor cells treated with DMSO, 20 μM PES, 100 nM Velcade (proteasome inhibitor), 1 μM 17-AAG (HSP90 inhibitor), 5 μM CQ (lysosome inhibitor), or 20S proteasome inhibitor epigallocatechin gallate (EGCG). Each graphical representation indicates the mean±SD of at least three independent cultures relative to control (DMSO-treated) cells. (B) Cell extracts from SKBR3 human breast carcinoma cells, treated either with 20 μM PES or 1 μM 17-AAG for 24 h, were immunoprecipitated (IP) using anti-HSP70 or anti-HSP90 antibody. […] MTT assays of MCF7 human breast carcinoma cells pretreated with DMSO, or 5 μM PES for 1 h, followed by the addition of indicated amount of 17-AAG for 47 h. The results represent the mean±SD of at least three independent analysis of cultures relative to control (DMSO-treated) cells. (D and E) H1299 cells (D) or SKBR3 cells (E) were treated with DMSO, 20 μM PES, 17-AAG, or 17-AAG plus bortezomib (Velcade) as indicated; harvested in 1% NP-40 containing lysis buffer; fractionated into detergent-soluble and detergent-insoluble preparations; and assayed by western blot.
FIG. 18. Accumulation of HSP90 client proteins in the protein detergent-insoluble fraction following PES. (A) SKOV3 cells were treated with DMSO, 10 μM PES, or 20 μM PES for 24 h. Note the marked accumulation of EGFR, HER2/ErbB2, and AKT in the detergent-insoluble fraction following 20 μM PES treatment. (B and C) SKOV3 (B) or SKBR3 (C) cells were treated with DMSO, 20 μM PES, or 1 μM 17-AAG, as indicated, for 24 h. Cells were harvested in 1% NP-40 containing lysis buffer, fractionated into detergent-soluble and detergent-insoluble preparations, and assayed by western blot for the proteins indicated.
The HSP70 and HSC70 proteins bind to exposed hydrophobic regions of nascent-, translocating-, misfolded- or partially unfolded-proteins. These ATP-dependent molecular chaperones act in multi-protein complexes in conjunction with one or more regulatory co-chaperones to carry out multiple cellular functions. […] This is illustrated for H1299 cells treated with 10 or 20 μM PES for 24 h. […] This correlates with a reduced abundance of complexes containing HSP70, or HSC70, together with client proteins or co-chaperones (FIGS. 19A and 19B). […] However, since HSP70/HSC70 act as critical co-chaperones for HSP90, for example in client protein recruitment, PES-mediated alteration in the function of the 70-kDa molecular chaperones could be reflected in an altered behavior or expression of many client proteins. To test this idea, we examined the expression of a few well-established HSP90 client proteins, including the transmembrane tyrosine kinase receptors EGFR and HER2/ERBB2, and the downstream signaling factor AKT. These proteins are overexpressed, or aberrantly expressed, in a variety of human tumors, and have been implicated in cancer etiology and pathology. As a control for these studies, we compared the effects of PES to that of the well-established HSP90 inhibitor, 17-allylamino-17-demethoxygeldanamycin (17-AAG). 17-AAG interacts with the N-terminal region of HSP90 and inhibits its ATPase activity; this disrupts interactions of HSP90 with client proteins and leads to client-protein degradation via the ubiquitin-proteasome pathway (Whitesell, et al. 2005; Neckers, et al. 2007). To examine the expression of some HSP70/HSP90 clients, we used western blot analysis of detergent-soluble (clarified) whole cell extracts.
In general terms: A western blot detects proteins with antibodies after separation by electrophoresis.

Each structure is given as a SMILES string. Peptide text beside a SMILES is read from it. * marks the point of attachment. Cbz = O=C(OCc1ccccc1)*; CH2F = FC*

Chain of HSC70 (P11142 whole entry): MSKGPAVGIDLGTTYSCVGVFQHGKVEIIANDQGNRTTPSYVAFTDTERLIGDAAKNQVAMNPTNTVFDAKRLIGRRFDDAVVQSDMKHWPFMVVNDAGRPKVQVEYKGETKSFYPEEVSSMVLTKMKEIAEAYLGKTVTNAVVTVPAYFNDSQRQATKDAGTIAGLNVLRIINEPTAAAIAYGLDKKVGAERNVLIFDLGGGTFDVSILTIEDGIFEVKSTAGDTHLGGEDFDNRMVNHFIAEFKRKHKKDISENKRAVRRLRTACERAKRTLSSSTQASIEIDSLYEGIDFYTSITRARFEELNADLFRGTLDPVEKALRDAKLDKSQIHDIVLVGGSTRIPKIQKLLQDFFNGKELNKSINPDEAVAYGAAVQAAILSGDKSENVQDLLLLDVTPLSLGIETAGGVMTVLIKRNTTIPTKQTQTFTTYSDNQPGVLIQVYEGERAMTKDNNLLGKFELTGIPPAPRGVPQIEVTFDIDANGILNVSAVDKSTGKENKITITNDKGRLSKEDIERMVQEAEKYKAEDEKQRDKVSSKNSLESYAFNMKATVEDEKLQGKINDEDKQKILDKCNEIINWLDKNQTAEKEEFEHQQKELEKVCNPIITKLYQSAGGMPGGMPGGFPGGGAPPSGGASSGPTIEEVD
Chain of GRP78 (P11021 19-654): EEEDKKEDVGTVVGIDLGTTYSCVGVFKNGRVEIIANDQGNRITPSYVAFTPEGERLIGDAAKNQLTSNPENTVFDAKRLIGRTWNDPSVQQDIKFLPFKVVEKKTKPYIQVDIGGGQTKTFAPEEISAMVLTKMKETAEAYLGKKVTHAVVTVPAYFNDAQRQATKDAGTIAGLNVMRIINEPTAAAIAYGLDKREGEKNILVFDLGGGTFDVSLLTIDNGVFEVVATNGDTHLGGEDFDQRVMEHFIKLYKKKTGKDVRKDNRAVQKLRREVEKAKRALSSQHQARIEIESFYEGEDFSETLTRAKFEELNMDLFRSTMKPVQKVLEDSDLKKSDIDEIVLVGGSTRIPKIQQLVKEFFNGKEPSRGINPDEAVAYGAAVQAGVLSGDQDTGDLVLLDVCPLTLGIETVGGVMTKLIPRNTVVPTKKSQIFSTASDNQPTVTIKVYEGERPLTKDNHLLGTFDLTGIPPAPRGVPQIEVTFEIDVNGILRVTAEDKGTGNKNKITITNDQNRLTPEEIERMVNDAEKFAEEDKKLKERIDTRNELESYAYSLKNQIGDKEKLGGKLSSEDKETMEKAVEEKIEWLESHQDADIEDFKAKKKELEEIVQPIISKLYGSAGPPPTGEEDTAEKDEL

Regarding `CC(C)C[C@H](NC(=O)[C@H](Cc1ccccc1)NC(=O)c1cnccn1)B(O)O` [Velcade, bortezomib], the “p62/SQSTM1 oligomers in soluble and detergent-insoluble fractions” value in the assay with p62/SQSTM1, LC3 is on record as “promoted p62/SQSTM1 oligomerization primarily in the detergent-insoluble fraction”.
On to `O=C(CCCCC1SCC2NC(=O)NC21)NCCSSCCC(=O)NS(=O)(=O)C#Cc1ccccc1` (centres unmarked) [B-PES], for which the “interaction with endogenous HSP90” value in the assay with HSP90 is recorded as “no detectable interaction”. The “interaction with amino-terminal ATPase domain of HSP70” value at HSP70 [1] (amino acids 2-385) is on record as “not the amino-terminal ATPase domain”. The “interaction with carboxyl-terminal substrate-binding domain of HSP70” value at HSP70 [1] (amino acids 386-641) was “interacts with the carboxyl-terminal substrate-binding domain”. In addition, the “interaction with in vitro translated HSP70” value at HSP70 [2] is “interacts with in vitro translated HSP70”. Besides, the B-PES/HSP70 complex formation entry at HSP70 [3] is “direct interaction between B-PES and HSP70”. Besides, on GRP78, the “interaction with endogenous GRP78” value is recorded as “no detectable interaction”. Moreover, at HSC70 (24 h), the “interaction with endogenous HSC70” value was “no detectable interaction”. Further, the “HSC70 captured with B-PES” value at HSC70 (IMR90 fibroblasts) is recorded as “did not observe a PES interaction”; at HSC70 (tumor cells, 5 hr (FIG. 1G)), “found together with this small molecule”. For the same compound, the “HSP70 captured with B-PES” value is “did not observe a PES interaction” on HSP70 [4] (IMR90 fibroblasts) and “found together with this small molecule” on HSP70 [4] (tumor cells, 5 hr (FIG. 1G)). On HSP70 [4] (several cell lines, 24 h), the “interaction with endogenous HSP70” value was “interacts with HSP70”.
Take `COC(=O)C[C@H](NC(=O)[C@H](C)NC(=O)[C@@H](NC(=O)OCc1ccccc1)C(C)C)C(=O)CF` [Z-VAD-FMK] (Cbz-Val-Ala-Asp(OMe)-CH2F): the “effect on PES-mediated loss of cell viability” value in the assay with tumor cell lines is on record as “did not alter PES-mediated loss of cell viability”. The “cisplatin- and camptothecin-mediated caspase cleavage” value with caspase-3, caspase-8 is given as “inhibited cisplatin- as well as camptothecin-mediated caspase cleavage”.
Consider `C=CCNC1=C2C[C@@H](C)C[C@H](OC)[C@H](O)[C@@H](C)/C=C(\C)[C@H](OC(N)=O)[C@@H](OC)/C=C\C=C(/C)C(=O)NC(=CC1=O)C2=O` [17-AAG, 17-allylamino-17-demethoxygeldanamycin], for which the “activity of the 20S proteasome” value in the assay on 20S proteasome is recorded as “little, if any, effect”. In addition, in the assay on p62/SQSTM1, LC3, the “p62/SQSTM1 oligomers in soluble and detergent-insoluble fractions” value is recorded as “neither p62/SQSTM1 accumulation nor oligomerization was noted”. Besides, the “fate of HSP90 client proteins” value with EGFR, HER2/ErbB2, AKT is reported as “causes proteasome-mediated degradation of HSP90 client proteins”. In addition, the “overall cellular abundance of EGFR, HER2/ErbB2 and AKT” value in the assay on EGFR, HER2/ErbB2, AKT (SKBR3 cells, detergent-soluble extracts, 24 h) is “reduction in the overall cellular abundance”.
On to `C[C@@H]1C[C@@H]([C@H](O)CC2CC(=O)NC(=O)C2)C(=O)[C@@H](C)C1` [CHX, cycloheximide], for which the “PES-induced p62/SQSTM1 accumulation and oligomerization under co-treatment” value with p62/SQSTM1, LC3 (co-treated with PES for 6 h) is “reduced the accumulation and oligomerization of the autophagy marker p62/SQSTM1”.
